# Measured values from US20260091078A1, “OLIGOPEPTIDE THAT INHIBITS ANGIOGENESIS AND VASCULAR FUNCTION” (UNIVERSIDAD NACIONAL AUTONOMA DE MEXICO, priority 2019, published 2026).
# Tests used:
# [1] = system: interleukin-1α (IL-1α); assay: Expression of vasoinhibin target gene IL-1α mRNA in BUVEC E6E7 (qPCR); type: cell-based, bovine; conditions: BUVEC E6E7, 100 nM, 4 hours
# Description: Vasoinhibin induces the expression of a variety of genes via the activation of NF-KB to promote angiostatic and inflammatory effects. In particular, interleukin-1 alpha (IL-1α) and the intercellular adhesion molecule 1 (ICAM1) are vasoinhibin gene targets in the bovine endothelial cells. To evaluate the ability of the oligopeptide […] to induce the expression of IL-1α and ICAM1, BUVEC […] cells were seeded on 12 well plates with F12K-10% FBS, grown to 80% confluency, and starved with low serum (0.1% FBS) culture medium for 24 h. […] After 4 hours the RNA was extracted from the cells using Trizol (Invitrogen, Carlsbad, CA) and retrotranscribed using the High Capacity cDNA Reverse Transcription Kit (Applied Biosystems, Foster City, CA). The RT-PCR products were quantified in a Maxima SYBRgreen qPCR (Thermo Fisher Scientific) 10 μl final volume reaction mixture containing the template and 0.25 μM of each primer. The PCR amplification was done in the CFX96 Real Time PCR (BioRad), comprising a 10-minute denaturalization at 95° C., followed by 35 amplification cycles (95° C. for 10 sec, 58° C. for 30 sec, and 72° C. for 30 sec). […] The PCR data was analyzed by the 2^-ΔΔCT method and the threshold of the cycles (CT) was normalized by the constitutive housekeeping gene cyclophilin A (PPIA). […]
# [2] = system: BUVEC E6E7; assay: Vasopermeability in vitro: transendothelial electrical resistance (TEER); type: cell-based, bovine; conditions: BUVEC E6E7 monolayer, 100 nM, 50 ng ml^-1 VEGF, up to 120 minutes
# Description: Another conventional protocol to evaluate vasopermeability is the measurement of the transendothelial electrical resistance (TEER), which uses a device that applies an electric current through electrodes at both sides of the endothelial cell monolayer. […] The effect of the oligopeptide THGRGFI on endothelial cell permeability was evaluated by measuring TEER. BUVEC E6E7 were seeded in the TEER device at a density of 10,000 cells cm^−2. After three days, the monolayers were starved in low serum media (0.1% FBS) for 48 hours and after this time, 100 nM of vasoinhibin or of the oligopeptide were added to the upper compartment (luminal surface of the monolayer) for 1 hour. At time 0, TEER was recorded and 50 ng ml^−1 of VEGF were added to the luminal side. The TEER was measured at 10, 20, 30, 60, 90 and 120 minutes. Determinations were performed with the Epithelial Volt/Ohm (TEER) EVOM2 equipment (World Precision Instruments, FL, USA) with a 4 mm ‘chopstick’ electrode. Values were normalized relative to a device with no cells and a monolayer without treatment.
# [3] = system: primary cells from the human umbilical vein (HUVEC); assay: Transwell Matrigel invasion of HUVEC stimulated with VEGF; type: cell-based; conditions: 100 nM, VEGF 50 ng mL^-1, 24 hours
# Description: Endothelial cells were seeded over 100 μl Matrigel™ matrix (380 ng μl^−1) on a permeable ‘transwell’ support in a transwell chamber having an area of 0.33 cm^2 and 8 μm of pore-diameter at a density of 30,000 and 14,000 cells cm^−2 for BUVEC E6E7 and HUVEC cells, respectively. In the upper (luminal) compartment the cells were maintained with starving media F12K having 0.1 or 0.5% FBS for BUVEC E6E7 and HUVEC, respectively. In addition, HUVEC cells were maintained with 100 μg ml^−1 heparin. […] After 24 hours the media from both compartments and the luminal cells were removed. The abluminal cells were fixed with 100% MeOH for 10 minutes, permeabilized with TBS1x-0.5% Triton X-100, and stained with Hoechst 33342. The total number of cells in the abluminal compartment indicates the invasive activity of endothelial cells.
# The inhibitory effect of 100 nM of the oligopeptide THGRGFI on the invasion of immortalized endothelial cells from the bovine umbilical vein (BUVEC E6E7) (FIG. 3A) or primary cells from the human umbilical vein (HUVEC) (FIG. 3B) stimulated in each case with VEGF (50 ng mL^−1) was compared with the inhibitory effect of 100 nM of the 123 amino acid vasoinhibin (***P<0.001).
substance,measurement,setting,value
"Ac-THGRGFI-NH2 [THGRGFI, Thr His Gly Arg Gly Phe Ile]",fold-change of expression of IL-1α mRNA versus non-treated control,[1],~30 fold
same,effect on VEGF-induced reduction of transendothelial resistance (TEER),[2],block the VEGF effect
same,inhibition of invasion of endothelial cells,[3],significatively inhibited
